What was measured:
Assay in all cases: relative viability (nuclei count vs DMSO), 5 days (fraction); higher = more cells survive
[1] = compound: CC1=CC(=NN1)NC2=CC(=NC(=N2)/C=C/C3=CC=CC=C3)N4CCN(CC4)C + CC(=O)Nc1cccc(-n2c(=O)n(C3CC3)c(=O)c3c(Nc4ccc(I)cc4F)n(C)c(=O)c(C)c32)c1 [Trametinib] (partner 0.02 µM)
Procedure, shortened: (§1)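 A single step with final 0.05% Triton X-100, 1% formaldehyde and 1 ug/ml Hoechst fixed the cells and stained nuclei 5 days after treatment. Lung cancer cell lines in 1536-well plates had been treated by pin tool the day after seeding with one drug alone or a fixed anchor-drug dose plus five library-drug doses (not always all listed) in √10 steps, and nuclei were counted on 4× images. Relative viability is the ratio of nuclei in treated wells to nuclei in vehicle wells, taken as the median of duplicate plates.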

Obatoclax + Trametinib = compound: COC1=CC(c2cc3ccccc3[nH]2)=N/C1=C\c1[nH]c(C)cc1C [Obatoclax] + CC(=O)Nc1cccc(-n2c(=O)n(C3CC3)c(=O)c3c(Nc4ccc(I)cc4F)n(C)c(=O)c(C)c32)c1 [Trametinib] (partner 0.02 µM)
Procedure, shortened: as §1

Bortezomib + Foretinib = compound: CC(C)C[C@H](NC(=O)[C@H](Cc1ccccc1)NC(=O)c1cnccn1)B(O)O [Bortezomib] + COc1cc2c(Oc3ccc(NC(=O)C4(C(=O)Nc5ccc(F)cc5)CC4)cc3F)ccnc2cc1OCCCN1CCOCC1 [Foretinib] (partner 0.25 µM)
Procedure, shortened: as §1

Cell Line | relative viability ([1]; first compound 0.08 µM) | relative viability ([1]; first compound 0.253 µM) | relative viability ([1]; first compound 0.8 µM) | relative viability ([1]; first compound 2.53 µM) | relative viability ([1]; first compound 8 µM) | relative viability (Obatoclax + Trametinib; first compound 0.01 µM) | relative viability (Obatoclax + Trametinib; first compound 0.03162 µM) | relative viability (Obatoclax + Trametinib; first compound 0.1 µM) | relative viability (Obatoclax + Trametinib; first compound 0.3162 µM) | relative viability (Obatoclax + Trametinib; first compound 1 µM) | relative viability (Bortezomib + Foretinib; first compound 0.0002 µM) | relative viability (Bortezomib + Foretinib; first compound 0.000632 µM) | relative viability (Bortezomib + Foretinib; first compound 0.002 µM) | relative viability (Bortezomib + Foretinib; first compound 0.006325 µM) | relative viability (Bortezomib + Foretinib; first compound 0.02 µM)
SK-MES-1 | 0.549 | 0.646 | 0.595 | 0.245 | 0.137 | 0.635 | 0.572 | 0.713 | 0.554 | 0.319 | 1.01 | 0.946 | 0.967 | 0.632 | 0.241
NCI-H2085 | 0.594 | 0.48 | 0.535 | 0.261 | 0.214 | 0.671 | 0.598 | 0.582 | 0.405 | 0.377 | 1.04 | 1.08 | 1.05 | 0.273 | 0.199
NCI-H2087 | 0.155 | 0.18 | 0.151 | 0.072 | 0.0577 | 0.2 | 0.204 | 0.22 | 0.145 | 0.122 | 0.972 | 0.975 | 0.794 | 0.0688 | 0.059
HCC-366 | 0.334 | 0.372 | 0.253 | 0.0375 | 0.0236 | 0.348 | 0.323 | 0.321 | 0.245 | 0.228 | 0.917 | 0.889 | 1.01 | 0.627 | 0.0395
NCI-H2126 | 0.57 | 0.534 | 0.555 | 0.516 | 0.346 | 0.57 | 0.493 | 0.526 | 0.55 | 0.546 | 1.08 | 1.03 | 1.12 | 1.02 | 0.21
SK-LU-1 | 0.502 | 0.266 | 0.555 | 0.229 | 0.129 | 0.454 | 0.568 | 0.447 | 0.414 | 0.311 | 0.742 | 0.86 | 0.67 | 0.128 | 0.112
HCC-78 | 0.763 | 0.605 | 0.877 | 0.647 | 0.324 | 0.774 | 0.717 | 1.03 | 0.547 | 0.898 | 0.505 | 0.577 | 0.492 | 0.432 | 0.254
